{
  "source": "patent US20210214385A1",
  "about": "“INHIBITORS OF D-AMINO ACID OXIDASE AND USES THEREOF” (SyneuRx International (Taiwan) Corp., priority 2018, published 2021)",
  "key": {"[1]": {"assay": "Concentration in mouse brain after i.p. administration, HPLC-MS after tannase hydrolysis into gallic acid", "type": "in vivo, mice", "method": "The objective of this experiment was to compare the concentration of Compound 24 and enriched tannic acid in mouse brain after intraperitoneal (i.p.) administration. The enriched tannic acid was prepared by the enrichment method 10 of U.S. Ser. No. 10/105,378. C57BL/6J mice at 14 weeks of age were divided into two groups with 3 mice each. The mice in group I and II were, respectively, i.p. injected with Compound 24 at 30 mg/kg and enriched tannic acid at 15 mg/kg once every two days for three months. The brain sample was collected from each animal at 24 hours after the final i.p. administration and immediately frozen and stored at −70° C. until further use.\nThe amounts of Compound 24 and enriched tannic acid in mice brain were analyzed by high performance liquid chromatography-mass spectrometry (HPLC-MS) after enzymatic hydrolysis into gallic acid. Each frozen brain sample was homogenized with 4-fold volume of deionized water (ddH2O) using a handheld tissue homogenizer (BT Lab Systems). […]\nChromatographic analysis was performed using a Phenomenex Kinetex C8 column (150×4.6 mm, 5 μm). […] Quantitation was done using the selected-ion monitoring chromatogram (SIM) mode to monitor the precursor ion of m/z 169 for gallic acid and m/z 137 for 4-hydroxybenzoic acid as an internal standard. […]"}, "[2]": {"tested_on": "MK-801 treated mice", "assay": "Pre-pulse inhibition in MK-801 treated mice", "type": "in vivo", "conditions": "30 mg/kg oral, MK-801 0.3 mg/kg i.p., male mice", "method": "C57BL/6J male mice were group housed under the same condition as described in Example 1. Mice were randomly assigned into three groups, Group 1: vehicle control, Group 2: MK-801, Group 3: Cpd 24 (30 mg/kg)+MK-801. Mice in Group 2-3 received an acute intraperitoneal (i.p.) injection of MK-801 (Sigma-Aldrich USA), a NMDA receptor antagonist, dissolved in normal saline, at 0.3 mg/kg 20 minutes prior to the pre-pulse inhibition test. Each mouse in Group 1-2 and Group 3 received, respectively, an acute oral administration of 65% PEG400 in ddH2O and compound 24 at 30 mg/kg (dissolved with 65% PEG400 in ddH2O) 20 minutes prior to the MK-801 administration.\nPre-pulse inhibition, using SR-LAB startle apparatus (San Diego Instruments, San Diego, Calif., USA), was used to determine the efficacy of compound 24 on attenuating the MK-801 induced deficit of sensorimotor gating function in mice. Under 65 dB background noise, each session was composed of 5-minutes accumulation period followed by 64 trials in four blocks. The pulse alone (PA) trial was a 40 ms, 120 dB white noise burst. In the prepulse (pp)+pulse trials, a 20 ms white noise prepulse stimuli of 71 dB (pp6), 75 dB (pp10), and 83 dB (pp18) were presented 100 ms before a 40 ms 120 dB pulse. The non-stimulus (NS) trials presented the background noise only. The initial and the last blocks were composed of six PA trials, respectively. Two middle blocks consisted of PA, pp+pulse, and NS trials. These trials were presented pseudo-randomly and separated by intertribal intervals of 15 seconds on average (varying between 10 to 20 s). The percentage of prepulse inhibition was evaluated by the following formula: % PPI=100× [(PA score)−(pp-P score)]/(PA score), where the PA score was the average of the PA value in the middle blocks."}, "[3]": {"assay": "in vivo", "conditions": "C57BL/6J, mouse, po"}, "[4]": {"assay": "Log P, n-octanol/water partition coefficient, HPLC", "type": "physicochemical", "method": "The sample compounds tested in the log P experiments included enriched tannic acid (prepared by the enrichment method 10 of U.S. Ser. No. 10/105,378), compounds 21, 24, 27, 46, and 56. First, n-Octanol and water was saturated with each other to achieve partition equilibrium and the two phases were separated for further use. Sample compounds were dissolved in water and n-octanol phase, respectively. Both phases were mixed by vertical rotation movement. After the water and n-octal phases reached equilibrium state, both phases were analyzed to determine the concentrations of the sample compounds for the determination of log P values. All samples were performed in a Shimadzu CBM-20A FfPLC system. The chromatographic separation was carried out on a 5 μm, Kinetex C18 100 Å LC column (100×4.6 mm). The mobile phase was 0.1% formic acid in water and acetonitrile/Methanol set as gradient. Flow rate used was 1.2 mL/min. Column was at room temperature 20±5° C.\nThe partition coefficient abbreviated P is calculated based on the concentration in n-octanol divided by the concentration in water. The formula of log P is shown below: […]"}, "[5]": {"target": "human D-amino acid oxidase (hDAAO) (Homo sapiens, UniProt P14920)", "sequence (P14920 whole entry)": "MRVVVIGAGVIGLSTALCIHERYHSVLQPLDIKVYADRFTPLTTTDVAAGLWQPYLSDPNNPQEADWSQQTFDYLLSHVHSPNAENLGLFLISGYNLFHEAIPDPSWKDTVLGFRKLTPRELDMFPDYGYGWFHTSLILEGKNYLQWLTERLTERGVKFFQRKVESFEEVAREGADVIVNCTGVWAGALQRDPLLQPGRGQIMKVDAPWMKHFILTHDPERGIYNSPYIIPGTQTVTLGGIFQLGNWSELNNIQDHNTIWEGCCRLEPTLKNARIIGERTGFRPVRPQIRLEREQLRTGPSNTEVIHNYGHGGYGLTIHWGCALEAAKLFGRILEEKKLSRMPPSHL", "assay": "In vitro measurement of human D-amino acid oxidase (hDAAO) activity, D-Serine substrate, Amplex Red fluorescence", "type": "biochemical"}},
  "data": [
    {"compound": "O=C(OC[C@H]1O[C@H](OC(=O)c2cc(O)c(O)c(OC(=O)c3cc(O)c(O)c(OC(=O)c4cc(O)c(O)c(O)c4)c3)c2)[C@H](OC(=O)c2cc(O)c(O)c(OC(=O)c3cc(O)c(O)c(OC(=O)c4cc(O)c(O)c(O)c4)c3)c2)[C@@H](OC(=O)c2cc(O)c(O)c(OC(=O)c3cc(O)c(O)c(OC(=O)c4cc(O)c(O)c(O)c4)c3)c2)[C@@H]1OC(=O)c1cc(O)c(O)c(OC(=O)c2cc(O)c(O)c(OC(=O)c3cc(O)c(O)c(O)c3)c2)c1)c1cc(O)c(O)c(OC(=O)c2cc(O)c(O)c(OC(=O)c3cc(O)c(O)c(O)c3)c2)c1", "note": "[Compound 24, (2R,3R,4S,5R,6R)-6-(((3-((3,4-dihydroxy-5-((3,4,5-trihydroxybenzoyl)oxy)benzoyl)oxy)-4,5-dihydroxybenzoyl)oxy)methyl)tetrahydro-2H-pyran-2,3,4,5-tetrayl tetrakis(3-((3,4-dihydroxy-5-((3,4,5-trihydroxybenzoyl)oxy)benzoyl)oxy)-4,5-dihydroxybenzoate)]", "values": [
      {"measurement": "Concentration (amount per g brain tissue)", "setting": "[1]; 30 mg/kg i.p. once every two days for three months, 24 hours after final dose", "result": 2714.19, "unit": "ng/g"},
      {"measurement": "brain concentration relative to enriched tannic acid", "setting": "[1]; compound 24 at 30 mg/kg vs enriched tannic acid at 15 mg/kg i.p.", "result": "more than 9 times"},
      {"measurement": "pre-pulse inhibition percentage", "setting": "[2]; 71 dB pre-pulse intensity", "result": "moderately increased the inhibition percentage"},
      {"measurement": "MK-801 induced pre-pulse inhibition deficit", "setting": "[2]; 75 dB pre-pulse intensity", "result": "significantly improved"},
      {"measurement": "pre-pulse inhibition percentage", "setting": "[2]; 83 dB pre-pulse intensity", "result": "moderately increased the inhibition percentage"},
      {"measurement": "MTD at 7 day", "setting": "[3]", "result": 4500, "unit": "mg/kg"},
      {"measurement": "logP", "setting": "[4]", "result": 0.58},
      {"measurement": "IC50", "setting": "[5]", "result": 13, "unit": "nM"}
    ]}
  ]
}
